Source: patent US20250123282A1, “METHODS FOR EVALUATION AND TREATMENT OF TYROSINE KINASE INHIBITOR (TKI)-RESISTANT ACUTE MYELOID LEUKEMIA” (LOMA LINDA UNIVERSITY, priority 2021, published 2025)

Columns and labels:
MV4-11 blasts = test: GILT combined with MIF inhibitor or CXCR2 inhibitor on MV4-11 blasts in vitro (FACS); type: cell-based, human; conditions: for most effective dose on MV4-11 based on the FACS analyses: dose-dependent experiments with or without 80 nM GILT
Procedure: (§1) Whether targeting the MIF-CXCR2 signaling pathway would effectively treat AML blasts were investigated. First, the combination of GILT with ribosomal protein S19 (RPS19) on MV4-11 blasts was tested in vitro. RPS19, a MIF inhibitor, has been reported to suppress cisplatin-activated MIF-CD74-NFκB signaling pathway in acute kidney injury. […] The combination of 80 nM GILT with 50 uM SB225002, a CXCR2-inhibitor (CXCR2-I) on MV4-11 blasts in vitro were examined. […] The anti-leukemic effect of combining GILT with CXCR2-I on primary BMMNC ex vivo were examined. […] There may be alternative cytokine pathways compensating for the defect of MIF-CXCR2 pathways.
(§2) For MIF in vitro experiments, different doses of MIF were added to 1 ml of 1×10^6 MV4-11 cells or RAW264.7 cells for each experimental group in 24-well plates. Two days after the one dose treatment, cells were then collected for either analyses by FACS and qPCR. As combination agents to treat blasts in vitro or ex vivo, one dose of 80 nM GILT with one dose of different inhibitors were added to 1 ml of 1×10^6 MV4-11 cells or 1 ml of 0.5-1×10^6 primary AML BMMNC for each experimental group in 24-well plates. Dose-dependent experiments of CXCR2 inhibitor and NFκB inhibitor with or without 80 nM GILT were performed. […] Three days after the one dose treatment, cells were then collected for either analyses by FACS and qPCR.
(§3) Flow Cytometry (FACS). Cells were harvested and examined for the expression of cell surface biomarkers (CD) and intracellular proteins by multichromatic FACS as previously described. About 1×10^4˜10^6 cells in 100 μl FACS buffer (PBS containing 1% FBS and 0.05% sodium azide) were stained with various fluorescence-conjugated antibodies specific for the desired cell surface proteins at 4° C. for 30 min. The surface-stained cells were then fixed and permeabilized using the appropriate reagents (e.g. the BD Pharmingen Cytofix/Cytoperm buffer) and stained with different fluorescence-conjugated antibodies specific for the desired intracellular proteins at 4° C. for 2 hours in the permeabilizing buffer (e.g. the BD Perm/Wash buffer). Concentrations of the Abs were used per the manufacturers' recommendations. Finally, the cells were washed twice in the permeabilizing buffer and twice in the FACS buffer before being analyzed on the BD FACSAria II. Data was analyzed using the FlowJo software (Tree Star Inc., Ashland, OR).

primary AML BMMNC = test: Ex vivo combination treatment of primary AML BMMNC (FACS, imaging, qPCR); type: cell-based, human; conditions: 80 nM GILT
Procedure: as §1
The combination of 80 nM GILT and 50 uM BAY11-7821 (a NFκB-I) was tested as a novel therapeutic approach for AML.
Next, the anti-leukemic effect of the combination was examined on primary BMMNC from refractory AML patients (Patient #7, Table 4).
Human Samples. AML bone marrow (BM) mononuclear cells (BMMNC) (Patients #1-7, Table 4) were obtained from the City of Hope National Medical Center (COHNMC). All donor patients signed an informed consent form. Sample acquisition was approved by the Institutional Review Boards at the LLUMC and the COHNMC in accordance with an assurance filed with and approved by the Department of Health and Human Services, and it met all requirements of the Declaration of Helsinki.
as §2, §3
RNA Isolation and Real-Time Polymerase Chain Reaction (qPCR) analysis. MV4-11 and MOLM-14 cells were cultured with the presence of TKI drugs for 72 hours or re-plated 28 days after the treatment of TKI drugs. Cells were isolated for RNA isolation and qPCR analysis as previously described. Total RNA was isolated using the RNeasy Micro Kit (Qiagen) according to the manufacturer's instruction. First-strand cDNA was synthesized using the SuperScript III Reverse Transcriptase (Invitrogen; Life Technologies). With an Applied Biosystems 7900HT Real-Time PCR machine, qPCR was performed and analyzed using known primers for the specific markers. The PCR conditions were 10 minutes at 95° C. followed by 40 cycles of 10 seconds at 95° C. and 15 seconds at 60° C. The relative expression level of a gene was determined using the ΔΔCt method and normalized to GAPDH.

MV4-11 cells [1] = test: FACS time course of CD44+pBAD+ and Ki67+CD33+CD44+ populations in TKI-treated MV4-11; type: cell-based, human
Excerpt: (§4) To follow the cell fate of TKI-treated MV4-11 and MOLM-14, culturing of blasts were continued by performing medium change every 2-3 days. […] The BAD protein is a pro-apoptotic member of the BCL-2 gene family, which is involved in initiating apoptosis. Dephosphorylated BAD is pro-apoptotic by binding BCL-2 and inactivating BCL-2, while phosphorylated BAD (pBAD) is anti-apoptotic by leaving BCL-2 free to inhibit BAX-triggered apoptosis.
(§5) Small Molecular Inhibitors and in vitro & ex vivo Treatment. […] The dose of 80 nM for the four TKIs was selected based on their dose-dependent cytotoxicity in previous reports. […] Both GILT and QUIZ were reported to start to suppress the tumorigenic clustering and c-Kit at the dose of 80 nM. […] The combination of 5 μM 5-Azacitidine (AZA) and 80 nM 1α,25-Dihydroxyvitamin D3 (VD3) was added to the experimental group similar to the previous report. As combination agents to treat blasts in vitro, one dose of 80 nM GILT with one dose of either 100 nM Venetoclax (BCL2 inhibitor), 10 μM (R)-Lisofylline (STAT4 inhibitor), 100 nM AZD1208 (PIM inhibitor), 500 nM PF-06826647 (TYK2 inhibitor), or 500 nM AT9283 (JAK2/3 inhibitor) were added to 1 ml of 1×10^6 cells for each experimental group in 24 well plates. Three days after the one dose treatment, cells were then collected for either analyses by FACS and qPCR, or re-plated into 24 well plates for continued culture. At different time points, re-plated cells were collected for analyses by FACS and qPCR. Medium change was performed every 2-3 days.
as §3

MV4-11 = conditions: 100 nM, cited from earlier work
MV4-11 cells [2] = test: FACS of TKI-treated MV4-11 cells in vitro (viable blasts, Ki67, pBAD); type: cell-based, human; conditions: 3 days after the treatment
Procedure: (§6) The AML cells were analyzed at different time points after exposure to TKI (3 days, 10 days, 20 days, and 28 days). […] After 3 days, FACS of the surface markers and intracellular proteins, including CD14, CD33, CD44, and Ki67, were performed. FIGS. 1A-1E depicts therapeutic effect of different TKIs on MV4-11 and MOLM-14 cells in vitro (N=6). […] The circles indicate the group of viable blasts located in a FACS plot and green arrows indicate the dying tendency of blasts which will become positive for viability dye during the next few days. FIGS. 1C and 1D are graphical representations of the cumulative FACS percentage data of viable MV4-11 and MOLM-14 cells. *P<0.05. […]
as §3, with “Cells were harvested and examined for the expression of cell surface biomarkers (CD) and intracellular proteins by multichromatic FACS as previously described.” left out, “Concentrations of the Abs were used per the manufacturers' recommendations.” left out, “Data was analyzed using the FlowJo software (Tree Star Inc., Ashland, OR).” left out

MOLM-14 cells [3] = test: FACS of TKI-treated MOLM-14 cells in vitro (viable blasts, pBAD); type: cell-based, human; conditions: 3 days after the treatment
Procedure: as §6
as §3, with “Cells were harvested and examined for the expression of cell surface biomarkers (CD) and intracellular proteins by multichromatic FACS as previously described.” left out, “Concentrations of the Abs were used per the manufacturers' recommendations.” left out, “Data was analyzed using the FlowJo software (Tree Star Inc., Ashland, OR).” left out

MV4-11 cells [4] = test: Phase-bright imaging of re-growth of TKI-treated MV4-11; type: cell-based, human
Excerpt: as §4, §5
Imaging Acquisition. Phase-bright images were taken using an Olympus 1X71 inverted microscope and were processed using an Olympus cellSens Dimension 1.15 Imaging Software.

MOLM-14 cells [5] = test: Phase-bright imaging of re-growth of TKI-treated MOLM-14; type: cell-based, human; conditions: 10 days after TKI treatment
Excerpt: as §4
as §5, with “At different time points, re-plated cells were collected for analyses by FACS and qPCR. Medium change was performed every 2-3 days.” left out

MV4-11 cells [6] = test: Recombinant human MIF added to MV4-11 cultures (FACS Ki67, qPCR); type: cell-based
Procedure: (§7) To examine the role of MIF in the proliferation of AML blasts, different doses of recombinant human MIF peptides were added to the cell cultures of MV4-11 (AML blast cell line). […] To investigate how MIF affects immune cells, MIF was tested on RAW264.7 (a macrophage cell line). […] The findings are consistent with a previous report that primary AML blasts constitutively express MIF, stimulating bone marrow mesenchymal cells to release CXCL8 (IL-8), a ligand that also binds to CXCR2, to sustain blasts' proliferation. In addition, CXCL1/5/8 were routinely and highly released (a median level >1000 pg/mL) in the supernatants of culturing naïve AML patient cells ex vivo.
For MIF in vitro experiments, different doses of MIF were added to 1 ml of 1×10^6 MV4-11 cells or RAW264.7 cells for each experimental group in 24-well plates. Two days after the one dose treatment, cells were then collected for either analyses by FACS and qPCR. […]
as §3, with “Cells were harvested and examined for the expression of cell surface biomarkers (CD) and intracellular proteins by multichromatic FACS as previously described.” left out, “Concentrations of the Abs were used per the manufacturers' recommendations.” left out
RNA Isolation and Real-Time Polymerase Chain Reaction (qPCR) analysis. […] With an Applied Biosystems 7900HT Real-Time PCR machine, qPCR was performed and analyzed using known primers for the specific markers. […] The relative expression level of a gene was determined using the ΔΔCt method and normalized to GAPDH.

[7] = tested on: RAW264.7 (a macrophage cell line); test: Recombinant human MIF added to RAW264.7 cultures (FACS Ki67); type: cell-based; conditions: 5 ng/ml MIF; 2 days
Procedure: as §7, with “vivo. […]” for “vivo.”
as §3, with “Cells were harvested and examined for the expression of cell surface biomarkers (CD) and intracellular proteins by multichromatic FACS as previously described.” left out, “Concentrations of the Abs were used per the manufacturers' recommendations.” left out, “Data was analyzed using the FlowJo software (Tree Star Inc., Ashland, OR).” left out

[8] = primary BMMNC ex vivo (Patient #2 and #3), 50 uM CXCR2-I
[9] = MV4-11, 10 days after TKI treatment
[10] = MV4-11, 20 days after TKI treatment
[11] = MV4-11, 28 days after TKI treatment
[12] = newly diagnosed AML, Patient #5, 50 uM BAY11-7821

O=C(Nc1ccc([N+](=O)[O-])cc1O)Nc1ccccc1Br [CXCR2-I, SB225002]
percentage of Ki67+CD44+ blasts (MV4-11 blasts; MV4-11, 80 nM GILT, 50 uM SB225002, 3 days): 5.7%
most effective dose on MV4-11 based on the FACS analyses (MV4-11 blasts): 50 µM
percentage of Ki67+CD13+ blasts (primary AML BMMNC; [8]): 14.3%
percentage of viable CD33+CD13+ primary blasts (primary AML BMMNC; [8]): 3.11%

CO[C@@H]1[C@H](N(C)C(=O)c2ccccc2)C[C@H]2O[C@]1(C)n1c3ccccc3c3c4c(c5c6ccccc6n2c5c31)C(=O)NC4 [MIDO, Midostaurin]
population of viable CD44+pBAD+ cells (MV4-11 cells [1]; [9]): 0.2%
population of viable Ki67+CD33+CD44+ cells (MV4-11 cells [1]; [9]): 2.54%
population of viable CD44+pBAD+ cells (MV4-11 cells [1]; [10]): 0.43%
population of viable Ki67+CD33+CD44+ cells (MV4-11 cells [1]; [10]): 1.41%
population of viable CD44+pBAD+ cells (MV4-11 cells [1]; [11]): 1.23%
population of viable Ki67+CD33+CD44+ cells (MV4-11 cells [1]; [11]): 2.54%
reduction of viable MV4-11 (MV4-11): 60%

Cc1ccc(S(=O)(=O)C=CC#N)cc1 [NFκB-I, BAY11-7082 (BAY11-7821)]
most effective dose on MV4-11 based on the FACS analyses (MV4-11 blasts): 50 µM
percentage of Ki67+CD33+ proliferating blasts (primary AML BMMNC; [12]): 25%
percentage of viable CD33+CD13+ primary blasts (primary AML BMMNC; [12]): 0.14%

CNC(=O)c1cc(Oc2ccc(NC(=O)Nc3ccc(Cl)c(C(F)(F)F)c3)cc2)ccn1 [SORA, Sorafenib]
pBAD expression in MV4-11 (FACS) (MV4-11 cells [2]): significant increase
pBAD expression in MOLM-14 (FACS) (MOLM-14 cells [3]): significant increase
population of viable CD44+pBAD+ cells (MV4-11 cells [1]; [9]): 0.24%
population of viable Ki67+CD33+CD44+ cells (MV4-11 cells [1]; [9]): 2.54%
population of viable CD44+pBAD+ cells (MV4-11 cells [1]; [10]): 0.8%
population of viable Ki67+CD33+CD44+ cells (MV4-11 cells [1]; [10]): 1.62%
population of viable Ki67+CD33+CD44+ cells (MV4-11 cells [1]; [11]): 2.82%
newly formed blast clusters (morphology) (MV4-11 cells [4]; 3 days after TKI treatment): observed
re-growth / tumorigenic clusters of MV4-11 (MV4-11 cells [4]; 10 days after TKI treatment): grew confluent
re-growth / tumorigenic clusters of MOLM-14 (MOLM-14 cells [5]): grew confluent
apoptosis and cell cycle arrest in MV4-11 (MV4-11; 72-hour treatment in vitro): significantly induce

B1: MIF: recombinant human macrophage migration inhibitory factor (Peprotech 300-69) (protein, UniProt P14174 2-115, looked up)
Macrophage migration …: PMFIVNTNVPRASVPDGFLSELTQQLAQATGKPPQYIAVHVVPDQLMAFGGSSEPCALCSLHSIGKIGGAQNRSYSKLLCGLLAERLRISPDRVYINYYDMNAANVGWNNSTFA
MV4-11 proliferation (percentage of Ki67+) (MV4-11 cells [6]; 5 ng/ml MIF, the lowest dose, 2 days): induce MV4-11's proliferation
gene expressions of CXCL1, CXCL5, CXCL8 (IL-8), CDK4 and CYCLIN E1 (MV4-11 cells [6]; MV4-11, different doses of MIF, qPCR): effectively induce
CXCR2 expression in MV4-11 blasts (MV4-11 cells [6]; exogenous recombinant MIF in vitro): effectively induced
RAW264.7 proliferation (Ki67) [7]: effectively suppressed
